Data published in PMC10447463, “Data-mining unveils structure–property–activity correlation of viral infectivity enhancing self-assembling peptides” (Nature Communications, 2023).
Where “and” joins values, the source holds several entries; their conditions need not be identical. Identical values can stand only once.

How the values were obtained:
[1] = system: HIV-1 infection of TZM-bl cells; experiment: HIV-1 infectivity enhancement assay, β-galactosidase luminescence; assay type: cell-based; conditions: for Rel-EFC: infection relative to EF-C (QCKIKQIINMWQ = 1); for Log10 Infection Rel EFC: log10 of infection relative to EF-C; for Log Infectivity: Log10 infection relative to EF-C, asymmetric std dev errors; for Log10 Infection Rel EF-C: HIV-1 infection of TZM-bl cells; for Abs. Inf.: β-galactosidase luminescence; for Log10 Inf. rel. to EF-C: log10 of HIV-1 infection of TZM-bl cells relative to EF-C (EF-C = 0); for Log10 of Rel to EFC (Feb2021): Log10 of infection relative to EF-C, all peptides of FigS16
[2] = β-sheet content by ATR-FT-IR; assay type: physicochemical; conditions: for b -sheet / %: Fig. S7 panel A, β-sheet content by ATR-FT-IR
Summary of the method: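 β-sheet content came from ATR FT-IR spectra of lyophilized 1 mg/mL nanofibril solution (64 scans, 2 cm^-1 resolution). Conversion was measured by separating free monomer with a 3 kDa cutoff filter, then comparing fluorescamine fluorescence (ex 365/em 470 nm, 20 min RT) of filtrate versus unfiltered sample, in triplicate.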

[3] = Zeta-potential measurement; assay type: physicochemical
Summary of the method: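 Aggregates: 1 mg/mL peptide, PBS pH 7.4, 1 d RT; dilute in KCl (1 mM, aq); measure mobility → zeta via Smoluchowski.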

[4] = Turbidity, derived count rate of scattered light; assay type: physicochemical; conditions: for Count Rate / kcps: derived count rate of scattered light at 633 nm, 173°, from zeta-potential measurement, 0.1 mg/mL in 1 mM KCl after 1 d at 1 mg/mL in PBS, turbidity / microscopic aggregation, mean of triplicate
Summary of the method: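 Samples: 1 mg/mL in PBS pH 7.4 (from DMSO), 1 d at RT, then diluted in 1 mM KCl immediately before measurement. Triplicates, two independent runs averaged.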

[5] = Conversion rate (CR) assay with fluorescamine; assay type: physicochemical; set-up: key to CR: % = 100−100×filtrate/original fluorescence intensity
Protocol: For ATR FT–IR spectroscopy measurements, 200 µL of the respective 1 mg/mL PNF solution was lyophilized and the resulting powder used for measurement. All spectra were recorded on a Bruker Tensor 27 spectrometer with a diamond crystal as ATR element (PIKE MiracleTM, spectral resolution 2 cm^-1). Every sample was measured with 64 scans. Data were analyzed with OriginLab software and calculation of β–sheet content was conducted according to a previous report. TEM. For TEM measurements 5 µL of PNF fibrils (1 mg/mL) were placed on copper grids coated with carbon and formvar layer (300 mesh, Plano GmbH). After 10 min incubation time, the grids were staining with 4% uranyl acetate solution for 2.5 min and washed with water. Measurements were performed on a Jeol 1400 electron microscope with 120 kV acceleration voltage. CR Assay. For the determination of the amount of peptide monomer converting into nanostructures the amine reactive dye fluorescamine was used analogous to a previous reported protocol. Briefly, 100 µL of the preformed PNF solution was centrifuged in a Vivaspin 500 tube (3 kDa MWCO) to separate fibers from free peptide monomer (16200 x g, 4 °C, 45 min). The filtrate and 100 μL of the non-filtered PNF sample were lyophilized and dissolved in 30 μL DMSO. 10 μL of the filtrate and non-filtered DMSO samples were submitted in a black UV Star® 384 microliter well–plates (Greiner bio–one) and 3 μL of the fluorescamine solution (10 mg/mL, DMSO) was added to measure the fluorescence enhancement. After 20 min of incubation at RT, fluorescence was recorded on an Infinite® M1000 PRO microplate reader (Tecan) at λem = 470 nm upon excitation at λex = 365 nm with 10 nm bandwidths and multiple reads per well (3×3). Measurements were repeated in triplicates and averaged with standard deviation. All values were calculated as n-fold fluorescence enhancement (DMSO only as a reference was set to 1). The conversion rate CR was defined according to the equation Eq. (3).3 CR=100−100×fluorescenceintensityfiltrate/fluorescenceintensityoriginal[%]

[6] = Fig. S7 panel A (plotted against β-sheet content), TZM-bl cells
[7] = Fig. S7 panel B (plotted against CR), rounded to two decimals, TZM-bl cells
[8] = Log10 of infection rate relative to EF-C, Figure 3A source data
[9] = infection rate relative to EF-C, log10, data of Figure 2D
[10] = infection rate relative to EF-C, log10, source data of Figure 2C
[11] = absolute infection signal, HIV-1 on TZM-bl cells
[12] = zeta-potential of peptide, source data of Figure 2C
[13] = zeta-potential of the peptide assemblies, mean, Figure 3A source data
[14] = Log10 of derived count rate of scattered light (turbidity)
[15] = logarithm of count rate in kcps
[16] = turbidity, Log10 of derived count rate of scattered light, Figure 3A source data
[17] = turbidity, log10 of derived count rate of scattered light
[18] = Fig. S7 panel B, conversion rate, fluorescamine assay
[19] = conversion rate, fluorescamine assay

Substance: CKAKAQANMWQ
- Rel-EFC ([1]; 1.3 µM peptide): 0,04
- Log10 Infection Rel EFC ([1]; 1.3 µM peptide): -1,36
- Log Infectivity [1, 6]: -1.359
- Log Infectivity [1, 7]: -1.36
- Log10 Infection Rel EF-C [1, 8]: -1.36
- Log10 Infection Rel EF-C [1, 9]: -1.359
- Log10 Infection Rel EF-C [1, 10]: -1.359
- Inf. rel. EF-C ([1]; HIV-1 infection relative to EF-C, Fig 23 plot, panels A and B, mean of 3 values): 0.02574
- Inf. rel. EF-C ([1]; HIV-1 infection relative to EF-C, Fig 23 plot, single data point, replicate 1): 0.02321
- Inf. rel. EF-C ([1]; HIV-1 infection relative to EF-C, Fig 23 plot, single data point, replicate 2): 0.03098
- Inf. rel. EF-C ([1]; HIV-1 infection relative to EF-C, Fig 23 plot, single data point, replicate 3): 0.02305
- Abs. Inf. / RLU s-1 ([1]; absolute infection rate, peptide 1.3 µM on cells, virus preincubated 10 min with fibrils, read 3 days post infection, mean of triplicate): 600 RLU s-1
- Abs. Inf. [1, 11]: 600
- Log10 Inf. rel. to EF-C [1]: -1.359
- Inf. rel. EF-C ([1]; n-fold infection vs virus only, relative to that of EF-C, 1.3 µM peptide): 0.04
- ß-sheet / % ([2]; ATR-FT-IR of lyophilised 1 mg/mL PNF solution, peak integral ratio 1625-1635 cm-1, measured once): 39%
- b -sheet / % [2]: 39.38%
- Zeta-Pot. [3]: 0.7373
- Zeta pot. / mV ([3]; 1 mg/mL in PBS pH 7.4 from 10 mg/mL DMSO stock, 1 d RT, 60 µL diluted in 600 µL 1 mM KCl, Zetasizer Nano ZS, Smoluchowski, mean of triplicate): 0.7 mV
- Zeta-Potential / mV [3, 12]: 2.155 mV
- Zeta-Potential / mV [3, 13]: 0.74 mV
- Log10 Count Rate [4, 14]: 0.9526
- Count Rate / kcps [4]: 9 kcps
- Log10 Count Rate [4, 15]: 1 and 0.9528
- Log10 Count Rate [4, 16]: 0.9526
- Log10 Count Rate [4, 17]: 0.9526
- CR / % [5, 18]: 92.5%
- CR / % ([5]; conversion of monomer to nanostructures, 3 kDa MWCO filtration, fluorescamine, ex 365 / em 470 nm, triplicate): 92%
- CR [5, 19]: 92.45

Substance: CKFKFQFW
- Rel-EFC ([1]; 1.3 µM peptide): 0,88
- Log10 Infection Rel EFC ([1]; 1.3 µM peptide): -0,06
- Log Infectivity [1, 6]: -0.05512
- Log Infectivity [1, 7]: -0.06
- Log10 Infection Rel EF-C [1, 8]: -0.06
- Log10 Infection Rel EF-C [1, 9]: -0.05512
- Log10 Infection Rel EF-C [1, 10]: -0.05512
- Log10 of Rel to EFC (Feb2021) [1]: -0.06
- Abs. Inf. ([1]; absolute HIV-1 infection signal, TZM-bl cells): 17862.22222
- b -sheet / % [2]: 42.53%
- Zeta-Pot. [3]: 15.2
- Zeta-Potential / mV [3, 12]: 16.02 mV
- Zeta-Potential / mV [3, 13]: 15.2 mV
- Log10 Count Rate [4, 14]: 4.466
- Count Rate / kcps [4]: 29211 kcps
- Log10 Count Rate ([4]; log10 of derived count rate of scattered light (turbidity)): 4.466
- Log10 Count Rate [4, 15]: 4.466
- Log10 Count Rate [4, 16]: 4.466
- CR / % [5, 18]: 98.7%
- CR [5, 19]: 98.71

Substance: CKFKQFF
- Rel-EFC ([1]; 1.3 µM peptide): 0,01
- Log10 Infection Rel EFC ([1]; 1.3 µM peptide): -2,17
- Log Infectivity [1, 6]: -2.171
- Log Infectivity [1, 7]: -2.17
- Log10 Infection Rel EF-C [1, 8]: -2.17
- Log10 Infection Rel EF-C [1, 9]: -2.171
- Log10 Infection Rel EF-C [1, 10]: -2.171
- Abs. Inf. [1, 11]: 260
- Log10 Inf. rel. to EF-C [1]: -2.171
- Abs. Infection at 0.26 µM ([1]; peptide 0.26 µM, mean of n = 3, Figure 4A): 366.7
- Infect 1 0.26 µM ([1]; peptide 0.26 µM, replicate 1, absolute infection signal, Figure 4A): 260
- Infect 2 0.26 µM ([1]; peptide 0.26 µM, replicate 2, absolute infection signal, Figure 4A): 50
- Infect 3 0.26 µM ([1]; peptide 0.26 µM, replicate 3, absolute infection signal, Figure 4A): 790
- Abs. Infection at 1.3 µM ([1]; peptide 1.3 µM, mean of n = 3, Figure 4A): 260
- Infect 1 .3 µM ([1]; peptide 1.3 µM, replicate 1, absolute infection signal, Figure 4A): 440
- Infect 2 1.3µM ([1]; peptide 1.3 µM, replicate 2, absolute infection signal, Figure 4A): 160
- Infect 3 1.3 µM ([1]; peptide 1.3 µM, replicate 3, absolute infection signal, Figure 4A): 180
- b -sheet / % [2]: 45.4057%
- Zeta-Pot. [3]: 11.56
- Zeta-Potential / mV [3, 12]: 8.055 mV
- Zeta-Potential / mV [3, 13]: 11.56 mV
- Log10 Count Rate [4, 14]: 0.4094
- Count Rate / kcps [4]: 3 kcps
- Log10 Count Rate [4, 15]: 0.4099
- Log10 Count Rate [4, 16]: 0.4094
- Log10 Count Rate [4, 17]: 0.4094
- CR / % [5, 18]: 90%
- CR [5, 19]: 90.05

Substance: CKFKQFFNMWQ
- Rel-EFC ([1]; 1.3 µM peptide): 0,61
- Log10 Infection Rel EFC ([1]; 1.3 µM peptide): -0,21
- Log Infectivity [1, 6]: -0.2148
- Log Infectivity [1, 7]: -0.21
- Log10 Infection Rel EF-C [1, 8]: -0.21
- Log10 Infection Rel EF-C [1, 9]: -0.2148
- Log10 Infection Rel EF-C [1, 10]: -0.2148
- Log10 of Rel to EFC (Feb2021) [1]: -0.21
- Abs. Inf. [1, 11]: 23486.66667
- Log10 Inf. rel. to EF-C [1]: -0.2148
- b -sheet / % [2]: 59.11%
- Zeta-Pot. [3]: 8.563
- Zeta-Potential / mV [3, 12]: 10.915 mV
- Zeta-Potential / mV [3, 13]: 8.56 mV
- Log10 Count Rate [4, 14]: 3.914
- Count Rate / kcps [4]: 8210 kcps
- Log10 Count Rate [4, 16]: 3.914
- Log10 Count Rate [4, 17]: 3.914
- CR / % [5, 18]: 98.7%
- CR [5, 19]: 98.72
